Tested on: NCI-H719 tumor spheroids, viability
Test: Anticancer human tumor NCI-H719 cell line growth inhibition;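 further: spheroids exposed to compounds for seven days; percent viability relative to DMSO vehicle control as 100%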
Settings: second compound 0.00949 µM; first compound 0.316 µM; stronger effect = lower value; spheroids with HUVEC and MSC
Summary of the method: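 Single agents and combinations were tested on spheroids built from tumor cells plus HUVEC and hMSC, at half-log dilutions starting at or near clinical Cmax, else 10 microM; final DMSO 0.25% (v/v).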

In order of falling viability, T/C:
1. COc1cc(C)[nH]c(=O)c1CN1CCc2c(Cl)cc(C(OC)C3COC3)c(Cl)c2C1=O (configuration not stated) + CC[C@@]1(O)C(=O)OCc2c1cc1n(c2=O)Cc2cc3c(CN(C)C)c(O)ccc3nc2-1  9.67%
2. [2H]c1nc(C)nc([2H])c1-c1cc(NC[C@@H](C)c2cccc3c(C(=O)NC)ccnc23)ncn1 + CC[C@@]1(O)C(=O)OCc2c1cc1n(c2=O)Cc2cc3c(CN(C)C)c(O)ccc3nc2-1  8.43%
3. CC(C)n1c(=O)n(C)c2cnc3cc(F)c(-c4ccc(OCCCN5CCCCC5)nc4)cc3c21 + CC[C@@]1(O)C(=O)OCc2c1cc1n(c2=O)Cc2cc3c(CN(C)C)c(O)ccc3nc2-1  7.39%
4. Cc1cc(C)c(CNC(=O)c2cc(-c3ccc(CN4CCOCC4)cc3)cc3c2cnn3C2CCCC2)c(=O)[nH]1 + CC[C@@]1(O)C(=O)OCc2c1cc1n(c2=O)Cc2cc3c(CN(C)C)c(O)ccc3nc2-1  6.88%
5. COc1ccc([C@@H](O)c2cc(-c3ncnc4cc(N5CCOCC5)ccc34)c(F)cc2Cl)nn1 + CC[C@@]1(O)C(=O)OCc2c1cc1n(c2=O)Cc2cc3c(CN(C)C)c(O)ccc3nc2-1  6.02%
6. CC1COCCN1c1cc(-c2ccnn2C)c2ccnc(-c3ccn[nH]3)c2n1 (configuration not stated) + CC[C@@]1(O)C(=O)OCc2c1cc1n(c2=O)Cc2cc3c(CN(C)C)c(O)ccc3nc2-1  5.26%

Same assay, conditions: second compound 0.00949 µM; first compound 1 µM; stronger effect = lower value; spheroids with HUVEC and MSC

In order of rising viability, T/C:
1. CC1COCCN1c1cc(-c2ccnn2C)c2ccnc(-c3ccn[nH]3)c2n1 (configuration not stated) + CC[C@@]1(O)C(=O)OCc2c1cc1n(c2=O)Cc2cc3c(CN(C)C)c(O)ccc3nc2-1  4.81%
2. COc1ccc([C@@H](O)c2cc(-c3ncnc4cc(N5CCOCC5)ccc34)c(F)cc2Cl)nn1 + CC[C@@]1(O)C(=O)OCc2c1cc1n(c2=O)Cc2cc3c(CN(C)C)c(O)ccc3nc2-1  6.07%
3. CC(C)n1c(=O)n(C)c2cnc3cc(F)c(-c4ccc(OCCCN5CCCCC5)nc4)cc3c21 + CC[C@@]1(O)C(=O)OCc2c1cc1n(c2=O)Cc2cc3c(CN(C)C)c(O)ccc3nc2-1  6.31%
4. Cc1cc(C)c(CNC(=O)c2cc(-c3ccc(CN4CCOCC4)cc3)cc3c2cnn3C2CCCC2)c(=O)[nH]1 + CC[C@@]1(O)C(=O)OCc2c1cc1n(c2=O)Cc2cc3c(CN(C)C)c(O)ccc3nc2-1  6.69%
5. [2H]c1nc(C)nc([2H])c1-c1cc(NC[C@@H](C)c2cccc3c(C(=O)NC)ccnc23)ncn1 + CC[C@@]1(O)C(=O)OCc2c1cc1n(c2=O)Cc2cc3c(CN(C)C)c(O)ccc3nc2-1  7.06%
6. COc1cc(C)[nH]c(=O)c1CN1CCc2c(Cl)cc(C(OC)C3COC3)c(Cl)c2C1=O (configuration not stated) + CC[C@@]1(O)C(=O)OCc2c1cc1n(c2=O)Cc2cc3c(CN(C)C)c(O)ccc3nc2-1  10.4%

Same assay, conditions: second compound 0.00949 µM; first compound 3.16 µM; stronger effect = lower value; spheroids with HUVEC and MSC

In order of falling viability, T/C:
1. CC(C)n1c(=O)n(C)c2cnc3cc(F)c(-c4ccc(OCCCN5CCCCC5)nc4)cc3c21 + CC[C@@]1(O)C(=O)OCc2c1cc1n(c2=O)Cc2cc3c(CN(C)C)c(O)ccc3nc2-1  16.9%
2. COc1cc(C)[nH]c(=O)c1CN1CCc2c(Cl)cc(C(OC)C3COC3)c(Cl)c2C1=O (configuration not stated) + CC[C@@]1(O)C(=O)OCc2c1cc1n(c2=O)Cc2cc3c(CN(C)C)c(O)ccc3nc2-1  7.95%
3. [2H]c1nc(C)nc([2H])c1-c1cc(NC[C@@H](C)c2cccc3c(C(=O)NC)ccnc23)ncn1 + CC[C@@]1(O)C(=O)OCc2c1cc1n(c2=O)Cc2cc3c(CN(C)C)c(O)ccc3nc2-1  6.95%
4. Cc1cc(C)c(CNC(=O)c2cc(-c3ccc(CN4CCOCC4)cc3)cc3c2cnn3C2CCCC2)c(=O)[nH]1 + CC[C@@]1(O)C(=O)OCc2c1cc1n(c2=O)Cc2cc3c(CN(C)C)c(O)ccc3nc2-1  6.81%
5. COc1ccc([C@@H](O)c2cc(-c3ncnc4cc(N5CCOCC5)ccc34)c(F)cc2Cl)nn1 + CC[C@@]1(O)C(=O)OCc2c1cc1n(c2=O)Cc2cc3c(CN(C)C)c(O)ccc3nc2-1  6.61%
6. CC1COCCN1c1cc(-c2ccnn2C)c2ccnc(-c3ccn[nH]3)c2n1 (configuration not stated) + CC[C@@]1(O)C(=O)OCc2c1cc1n(c2=O)Cc2cc3c(CN(C)C)c(O)ccc3nc2-1  5.91%

Same assay, conditions: second compound 0.00949 µM; first compound 10 µM; stronger effect = lower value; spheroids with HUVEC and MSC

In order of falling viability, T/C:
1. CC(C)n1c(=O)n(C)c2cnc3cc(F)c(-c4ccc(OCCCN5CCCCC5)nc4)cc3c21 + CC[C@@]1(O)C(=O)OCc2c1cc1n(c2=O)Cc2cc3c(CN(C)C)c(O)ccc3nc2-1  12.7%
2. [2H]c1nc(C)nc([2H])c1-c1cc(NC[C@@H](C)c2cccc3c(C(=O)NC)ccnc23)ncn1 + CC[C@@]1(O)C(=O)OCc2c1cc1n(c2=O)Cc2cc3c(CN(C)C)c(O)ccc3nc2-1  9.89%
3. COc1cc(C)[nH]c(=O)c1CN1CCc2c(Cl)cc(C(OC)C3COC3)c(Cl)c2C1=O (configuration not stated) + CC[C@@]1(O)C(=O)OCc2c1cc1n(c2=O)Cc2cc3c(CN(C)C)c(O)ccc3nc2-1  7.67%
4. CC1COCCN1c1cc(-c2ccnn2C)c2ccnc(-c3ccn[nH]3)c2n1 (configuration not stated) + CC[C@@]1(O)C(=O)OCc2c1cc1n(c2=O)Cc2cc3c(CN(C)C)c(O)ccc3nc2-1  7.24%
5. COc1ccc([C@@H](O)c2cc(-c3ncnc4cc(N5CCOCC5)ccc34)c(F)cc2Cl)nn1 + CC[C@@]1(O)C(=O)OCc2c1cc1n(c2=O)Cc2cc3c(CN(C)C)c(O)ccc3nc2-1  5.88%
6. Cc1cc(C)c(CNC(=O)c2cc(-c3ccc(CN4CCOCC4)cc3)cc3c2cnn3C2CCCC2)c(=O)[nH]1 + CC[C@@]1(O)C(=O)OCc2c1cc1n(c2=O)Cc2cc3c(CN(C)C)c(O)ccc3nc2-1  5.13%

Same assay, conditions: second compound 0.03 µM; first compound 0.0316 µM; stronger effect = lower value; spheroids with HUVEC and MSC

In order of falling viability, T/C:
1. CC(C)n1c(=O)n(C)c2cnc3cc(F)c(-c4ccc(OCCCN5CCCCC5)nc4)cc3c21 + CC[C@@]1(O)C(=O)OCc2c1cc1n(c2=O)Cc2cc3c(CN(C)C)c(O)ccc3nc2-1  7.27%
2. COc1cc(C)[nH]c(=O)c1CN1CCc2c(Cl)cc(C(OC)C3COC3)c(Cl)c2C1=O (configuration not stated) + CC[C@@]1(O)C(=O)OCc2c1cc1n(c2=O)Cc2cc3c(CN(C)C)c(O)ccc3nc2-1  6.93%
3. CC1COCCN1c1cc(-c2ccnn2C)c2ccnc(-c3ccn[nH]3)c2n1 (configuration not stated) + CC[C@@]1(O)C(=O)OCc2c1cc1n(c2=O)Cc2cc3c(CN(C)C)c(O)ccc3nc2-1  5.59%

— PubChem BioAssay AID1845212 (Molecular Pharmacology Branch, DTP, NCI, 2023)
